# Measured values reported in US12691186B2, “B7-H3 miniproteins, conjugates, and uses thereof” (priority 2023, dated 2026).
# Primed or numbered codes have the meaning given here. [ ]: non-standard residue; d: D form. The star is where a group is joined. Biotin = O=C1N[C@H]2[C@H](CS[C@H]2CCCCC(=O)*)N1; Lys(Me2) = CN(C)CCCC[C@H](N)C(=O)O; PEG4′ = not defined here
# Key:
# [1] = test system: >6,500 different human proteins; assay: Off-target binding, cell microarray platform (Retrogenix Assay) in HEK293 cells; conditions: biotin-labeled molecules
# Procedure: To evaluate potential off-target binding, eight biotin-labeled molecules were tested in a cell microarray platform (Charles River Lab, Retrogenix Assay) having >6,500 different human proteins spanning diverse functions and subcellular locations.
# Initially, two pools of molecules were tested. Pool #1 consisted of C298, C300, C302, C304, and pool #2 consisted of C306, C308, C310, and C312 at 2 μg/mL for each molecule. To perform this assay, HEK293 cells were plated on a dish and localized spots of cells were transiently over-expressed with a cDNA encoding for one of the >6,500 targets. Included in this library were two isoforms of CD276 (B7-H3) and B7-H3 related proteins (B7-1, B7-2, B7-H1/PD-L1, and B7-H2). The molecule pools were incubated on the fixed, over-expressing cell microarrays (n=2 per protein), and binding was visualized using Alexa Fluor 647 streptavidin fluorescence. All transfection efficiencies exceeded minimum thresholds for the microarray expression targets. Preliminary interactions identified from pooled results were re-spotted in duplicates, and each of the eight compounds were tested individually (n=2) at 2 μg/mL and/or in dose response against these targets as described above to validate the interactions.
# All positive control interactions were strong and passed quality control. Specific interactions observed (median SNR≥1) confirmed on-target B7-H3 binding in two different isoforms for each of the eight test molecules. These interactions with the primary target occurred after fixation and in live cells (absence of fixation). No significant additional interactions were confirmed for any test molecules outside of B7-H3, indicating high specificity for the primary target (data not shown).
# [2] = test system: opossum kidney proximal tubule cells; assay: OK-PTC uptake assay of miniprotein conjugates in presence of scaffold A decoys; assay type: cell-based; conditions: compound 20 μM; for % Uptake reduction in the presence of a decoy C118: 20-fold molar excess of decoy C118; for % Uptake reduction in the presence of a decoy C119: 20-fold molar excess of decoy C119
# Procedure: This Example describes reduction of uptake of exemplary truncated and constrained B7-H3 miniprotein conjugates (C272, C308, C234, C394, C250, and C228) when combined with exemplary scaffold A decoys (C118, C119 and C120) as compared to no decoy. Uptake of compounds was evaluated in opossum kidney proximal tubule cells (as described in Example 5). Here, cells were treated with a compound in the presence or absence of a 20-fold molar excess of exemplary scaffold A decoys, C118, C119, and C120. Results depicting uptake of six exemplary B7-H3-targeting compounds, C272, C308, C234, C394, C250, and C228, in OK-PTC cells in the presence and absence of exemplary decoys C118, C119, and C120 (scaffold A decoys) are shown in Table 13. The B7-H3-targeting compounds were used at 20 μM and the decoys used at a 20-fold (with C272, C308, C234, C394, and C250) and 10-fold (with C228) molar excess.
compound,measurement,setting,value
"C298 (CAXEKIAALSEIIWLPCLTYAQIXAFIAALNDDPCQSSEILSEAKELCS; Biotin-PEG4 N-term, methylated lysines, C-amide; SITE 3 trimethyllysine; SITE 24 dimethyllysine) [Compound C298]",background binding to untransfected HEK293 cells,[1],low-background binding
CC[C@H](C)[C@@H]1NC(=O)[C@H](Cc2ccccc2)NC(=O)[C@H](C)NC(=O)[C@H](CCCCNC)NC(=O)[C@H]([C@@H](C)CC)NC(=O)[C@H](CCC(N)=O)NC(=O)[C@H](C)NC(=O)[C@H](Cc2ccc(O)cc2)NC(=O)[C@H]([C@@H](C)O)NC(=O)[C@H](CC(C)C)NC(=O)[C@@H]2CSSC[C@@H](C(=O)N[C@@H](CO)C(N)=O)NC(=O)[C@H](CC(C)C)NC(=O)[C@H](CCC(=O)O)NC(=O)[C@H](CCCCNC)NC(=O)[C@H](C)NC(=O)[C@H](CCC(=O)O)NC(=O)[C@H](CO)NC(=O)[C@H](CC(C)C)NC(=O)[C@H]([C@@H](C)CC)NC(=O)[C@H](CCC(=O)O)NC(=O)[C@H](CO)NC(=O)[C@H](CO)NC(=O)[C@H](CC(N)=O)NC(=O)[C@H](CSSC[C@H](NC(=O)CCOCCOCCOCCOCCNC(=O)CCCC[C@@H]3SC[C@@H]4NC(=O)N[C@@H]43)C(=O)N[C@@H](C)C(=O)N[C@@H](CCCC[N+](C)(C)C)C(=O)N[C@@H](CCC(=O)O)C(=O)N[C@@H](CCCCN)C(=O)N[C@@H]([C@@H](C)CC)C(=O)N[C@@H](C)C(=O)N[C@@H](C)C(=O)N[C@@H](CC(C)C)C(=O)N[C@@H](CO)C(=O)N[C@@H](CCC(=O)O)C(=O)N[C@@H]([C@@H](C)CC)C(=O)N[C@@H]([C@@H](C)CC)C(=O)N[C@@H](Cc3c[nH]c4ccccc34)C(=O)N[C@@H](CC(C)C)C(=O)N3CCC[C@H]3C(=O)N2)NC(=O)[C@@H]2CCCN2C(=O)[C@H](CC(=O)O)NC(=O)[C@H](CC(=O)O)NC(=O)[C@H](CC(N)=O)NC(=O)[C@H](CC(C)C)NC(=O)[C@H](C)NC(=O)[C@H](C)NC1=O [Compound C312],background binding to untransfected HEK293 cells,[1],low-background binding
CC[C@H](C)[C@@H]1NC(=O)[C@H](Cc2ccccc2)NC(=O)[C@H](C)NC(=O)[C@H](CCCCNC)NC(=O)[C@H]([C@@H](C)CC)NC(=O)[C@H](CCC(N)=O)NC(=O)[C@H](C)NC(=O)[C@H](Cc2ccc(O)cc2)NC(=O)[C@H]([C@@H](C)O)NC(=O)[C@H](CC(C)C)NC(=O)[C@@H]2CSSC[C@@H](C(=O)N[C@@H](CO)C(N)=O)NC(=O)[C@H](CC(C)C)NC(=O)[C@H](CCC(=O)O)NC(=O)[C@H](CCCCNC)NC(=O)[C@H](C)NC(=O)[C@H](CCC(=O)O)NC(=O)[C@H](CO)NC(=O)[C@H](CC(C)C)NC(=O)[C@H]([C@@H](C)CC)NC(=O)[C@H](CCC(=O)O)NC(=O)[C@H](CO)NC(=O)[C@H](CO)NC(=O)[C@H](CCC(N)=O)NC(=O)[C@H](CSSC[C@H](NC(=O)CCOCCOCCOCCOCCNC(=O)CCCC[C@@H]3SC[C@@H]4NC(=O)N[C@@H]43)C(=O)N[C@@H](C)C(=O)N[C@@H](CCCC[N+](C)(C)C)C(=O)N[C@@H](CCC(=O)O)C(=O)N[C@@H](CCCCN)C(=O)N[C@@H]([C@@H](C)CC)C(=O)N[C@@H](C)C(=O)N[C@@H](C)C(=O)N[C@@H](CC(C)C)C(=O)N[C@@H](CO)C(=O)N[C@@H](CCC(=O)O)C(=O)N[C@@H]([C@@H](C)CC)C(=O)N[C@@H]([C@@H](C)CC)C(=O)N[C@@H](Cc3c[nH]c4ccccc34)C(=O)N[C@@H](CC(C)C)C(=O)N3CCC[C@H]3C(=O)N2)NC(=O)[C@@H]2CCCN2C(=O)[C@H](CC(=O)O)NC(=O)[C@H](CC(=O)O)NC(=O)[C@H](CC(N)=O)NC(=O)[C@H](CC(C)C)NC(=O)[C@H](C)NC(=O)[C@H](C)NC1=O [Compound C304],background binding to untransfected HEK293 cells,[1],low-background binding
CC[C@H](C)[C@@H]1NC(=O)[C@H](Cc2ccccc2)NC(=O)[C@H](C)NC(=O)[C@H](CCCCNC)NC(=O)[C@H]([C@@H](C)CC)NC(=O)[C@H](CCC(N)=O)NC(=O)[C@H](C)NC(=O)[C@H](Cc2ccc(O)cc2)NC(=O)[C@H](CC(N)=O)NC(=O)[C@H](CC(C)C)NC(=O)[C@@H]2CSSC[C@@H](C(=O)N[C@@H](CO)C(N)=O)NC(=O)[C@H](CC(C)C)NC(=O)[C@H](CCC(=O)O)NC(=O)[C@H](CCCCNC)NC(=O)[C@H](C)NC(=O)[C@H](CCC(=O)O)NC(=O)[C@H](CO)NC(=O)[C@H](CC(C)C)NC(=O)[C@H]([C@@H](C)CC)NC(=O)[C@H](CCC(=O)O)NC(=O)[C@H](CO)NC(=O)[C@H](CO)NC(=O)[C@H](CCC(N)=O)NC(=O)[C@H](CSSC[C@H](NC(=O)CCOCCOCCOCCOCCNC(=O)CCCC[C@@H]3SC[C@@H]4NC(=O)N[C@@H]43)C(=O)N[C@@H](C)C(=O)N[C@@H](CCCC[N+](C)(C)C)C(=O)N[C@@H](CCC(=O)O)C(=O)N[C@@H](CCCCN)C(=O)N[C@@H]([C@@H](C)CC)C(=O)N[C@@H](C)C(=O)N[C@@H](C)C(=O)N[C@@H](CC(C)C)C(=O)N[C@@H](CO)C(=O)N[C@@H](CCC(=O)O)C(=O)N[C@@H]([C@@H](C)CC)C(=O)N[C@@H]([C@@H](C)CC)C(=O)N[C@@H](Cc3c[nH]c4ccccc34)C(=O)N[C@@H](CC(C)C)C(=O)N3CCC[C@H]3C(=O)N2)NC(=O)[C@@H]2CCCN2C(=O)[C@H](CC(=O)O)NC(=O)[C@H](CC(=O)O)NC(=O)[C@H](CC(N)=O)NC(=O)[C@H](CC(C)C)NC(=O)[C@H](C)NC(=O)[C@H](C)NC1=O [Compound C310],background binding to untransfected HEK293 cells,[1],low-background binding
CC[C@H](C)[C@@H]1NC(=O)[C@H](Cc2ccccc2)NC(=O)[C@H](C)NC(=O)[C@H](CCCCNC)NC(=O)[C@H]([C@@H](C)CC)NC(=O)[C@H](CCC(N)=O)NC(=O)[C@H](C)NC(=O)[C@H](Cc2ccc(O)cc2)NC(=O)[C@H]([C@@H](C)O)NC(=O)[C@H](CC(C)C)NC(=O)[C@@H]2CSSC[C@@H](C(=O)N[C@@H](CO)C(N)=O)NC(=O)[C@H](CC(C)C)NC(=O)[C@H](CCC(=O)O)NC(=O)[C@H](CCCCNC)NC(=O)[C@H](C)NC(=O)[C@H](CCC(=O)O)NC(=O)[C@H](CO)NC(=O)[C@H](CC(C)C)NC(=O)[C@H]([C@@H](C)CC)NC(=O)[C@H](CC(N)=O)NC(=O)[C@H](C)NC(=O)[C@H](CO)NC(=O)[C@H](CCC(N)=O)NC(=O)[C@H](CSSC[C@H](NC(=O)CCOCCOCCOCCOCCNC(=O)CCCC[C@@H]3SC[C@@H]4NC(=O)N[C@@H]43)C(=O)N[C@@H](C)C(=O)N[C@@H](CCCNC(=N)N)C(=O)N[C@@H](CCC(=O)O)C(=O)N[C@@H](CCCCN)C(=O)N[C@@H]([C@@H](C)CC)C(=O)N[C@@H](C)C(=O)N[C@@H](C)C(=O)N[C@@H](CC(C)C)C(=O)N[C@@H](CO)C(=O)N[C@@H](CCC(=O)O)C(=O)N[C@@H]([C@@H](C)CC)C(=O)N[C@@H]([C@@H](C)CC)C(=O)N[C@@H](Cc3c[nH]c4ccccc34)C(=O)N[C@@H](CC(C)C)C(=O)N3CCC[C@H]3C(=O)N2)NC(=O)[C@@H]2CCCN2C(=O)[C@H](CC(=O)O)NC(=O)[C@H](CC(=O)O)NC(=O)[C@H](CC(N)=O)NC(=O)[C@H](CC(C)C)NC(=O)[C@H](C)NC(=O)[C@H](C)NC1=O [Compound C302],background binding to untransfected HEK293 cells,[1],low-background binding
"C250 ({Biotin-PEG4′}-CAKEKIAALSEIIWLPCLTYAQI[Lys(Me2)]AFIAALNDDPCQSSEILSEAKELNDSQCP-NH2; disulfide (positions not given here); also: disulfide bonds between pairs of the four Cys, pairing not given here) [Compound C250]",% Uptake reduction in the presence of a decoy C118,[2],90.2%
same,% Uptake reduction in the presence of a decoy C119,[2],97.4%
"C272 (CAREKIAALSEIIWLPCLTYAQIXAFIAALNDDPCQSAEILSEAKELCS; Biotin-PEG4 N-term, dimethyllysine, C-amide; SITE 24 dimethyllysine) [Compound C272]",% Uptake reduction in the presence of a decoy C118,[2],95.6%
same,% Uptake reduction in the presence of a decoy C119,[2],98.8%
same,% Uptake reduction in the presence of a decoy C120,[2]; 20-fold molar excess of decoy C120,97.5%
